Data on 3 molecules can be found in patent EP4810483A1, “6- AND 5-HETEROARYL DERIVATIVES AND USE THEREOF” (CMS Research & Development Pte. Ltd., priority 2023, dated 2025).

Read-outs that look alike come from different tables or passages of the source.

For data set [1], the target named is T1, hERG potassium channel (Homo sapiens, UniProt Q12809).
T1 construct: expressed in transfected cells; host or cells: CHO-hERG
Kind of data set: Automated patch clamp (Qpatch) assay for hERG potassium channel activity. It counts as cell-based. On the procedure: Assay Example 5: Automated patch clamp (Qpatch) assay for hERG potassium channel activity
CHO-hERG cells were cultured in 175 cm^2 culture flasks. When the cell density reached 60-80%, the culture medium was removed, the cells were washed once with 7 mL of PBS, and then 3 mL of cell dissociation reagent was added for digestion. After complete digestion, 7 mL of culture medium was added to neutralize, and the cells were centrifuged. The supernatant was aspirated, and the cells were resuspended in 5 mL of culture medium to achieve a cell density of 2~5 × 10^6/mL.
The compound stock solution was diluted with DMSO. 10 µL of compound stock solution was added to 20 µL of DMSO solution, followed by 3-fold serial dilution to obtain 6 DMSO concentrations. 4 µL of the compound solution at each of the six DMSO concentrations was added to 396 µL of extracellular solution to achieve a 100-fold dilution to obtain six intermediate concentrations. Then, 80 µL of the compound solution at each of the six intermediate concentrations was added to 320 µL of extracellular solution to achieve a 5-fold dilution to the desired final test concentrations. […]
The electrophysiological process was recorded. […] This voltage stimulation was applied every 15 seconds, and recorded for 2 minutes. The extracellular solution was then given, and recorded for 5 minutes. […]
The assay data were analyzed using GraphPad Prism 5.0 software. […]
(Patch clamp records ionic current or voltage across a cell membrane.)

Data set [2] has as its target CYP3A4 (Homo sapiens, UniProt P08684). Kind of data set: Drug-drug interaction evaluation: CYP inhibition in human liver microsomes (cocktail method). On the procedure: (§1) The cocktail method using specific probe substrates for CYP1A2, CYP2C9, CYP2C19, CYP2D6 and CYP3A was used to evaluate the inhibitory effect of the compounds on the activity of human liver microsomal cytochrome P450 isoenzymes (CYP1A2, CYP2C9, CYP2C19, CYP2D6 and CYP3A).
(§2) Human liver microsomes, probe substrates, positive control inhibitors, and reduced nicotinamide adenine dinucleotide phosphate (NADPH).
(§3) To the corresponding wells of a reaction plate, 20 µL of substrate solution was added; to blank wells, 20 µL of potassium phosphate buffer was added.
(§4) To the corresponding wells, 2 µL of test compound and positive control working solution were added; to inhibitor-free and blank wells, 2 µL of solvent was added.
(§5) Human liver microsome working solution was prepared, and 158 µL of human liver microsome working solution was added to each well of the reaction plate.
(§6) The plate was pre-incubated at 37.0°C for 10 minutes.
(§7) To start the reaction, 20 µL of NADPH cofactor working solution was added to the reaction plate.
(§8) After incubation in a 37.0°C water bath with mixing for 10 minutes, 400 µL of stop solution was added to terminate the reaction.
(§9) The sample plate was centrifuged at 4000 rpm for 20 minutes.
(§10) 200 µL of supernatant was taken and mixed with 100 µL of pure water as diluent, and the plate was shaken to mix well.
(§11) Analysis was performed by liquid chromatography-tandem mass spectrometry (LC-MS/MS).
(§12) Using the percentage of remaining activity as the ordinate and the test compound concentration as the abscissa, a non-linear regression analysis was performed with a three-parameter or four-parameter model using XL fit software to calculate the IC50 value.
(§13) y = (max)/(1 + (((x)/(IC50)))^−hillslope) [formula]
(§14) y = min + (max−min)/(1 + (((x)/(IC50)))^−hillslope) [formula]
(§15) max = maximum enzyme activity; min = minimum enzyme activity; x = concentration of test compound or positive control inhibitor; y = enzyme activity at the corresponding concentration; hillslope = slope; IC50 = half-maximal inhibitory concentration. The four-parameter equation was used when the minimum enzyme activity was within ±10%; otherwise the three-parameter equation was used.
For orientation: Liver microsomes are vesicles of endoplasmic reticulum, rich in cytochrome P450 enzymes.

Data set [3] has as its target T2, CYP1A2 (Homo sapiens, UniProt P05177).
T2 sequence (P05177 1-516): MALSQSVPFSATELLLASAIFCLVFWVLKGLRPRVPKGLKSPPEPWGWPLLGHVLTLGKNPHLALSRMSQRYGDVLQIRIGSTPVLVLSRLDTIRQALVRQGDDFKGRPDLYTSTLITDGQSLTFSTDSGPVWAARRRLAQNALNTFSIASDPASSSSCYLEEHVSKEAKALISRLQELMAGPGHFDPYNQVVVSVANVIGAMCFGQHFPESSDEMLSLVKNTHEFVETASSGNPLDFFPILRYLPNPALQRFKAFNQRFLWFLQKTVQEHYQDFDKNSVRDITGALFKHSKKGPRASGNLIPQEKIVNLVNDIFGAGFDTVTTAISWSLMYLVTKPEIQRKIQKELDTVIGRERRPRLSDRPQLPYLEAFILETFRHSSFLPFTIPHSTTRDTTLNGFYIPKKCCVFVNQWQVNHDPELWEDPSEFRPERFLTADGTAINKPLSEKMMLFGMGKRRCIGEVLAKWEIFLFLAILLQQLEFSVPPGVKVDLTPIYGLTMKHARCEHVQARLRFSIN
Described as above. On the procedure:
as §1, §2, §3, §4, §5, §6, §7, §8, §9, §10, §11, §12, §13, §14, §15

Data set [4] addresses CYP2C19 (Homo sapiens, UniProt P33261). The description is as above. On the procedure:
as §1, §2, §3, §4, §5, §6, §7, §8, §9, §10, §11, §12, §13, §14, §15

For data set [5], the target named is CYP2C9 (Homo sapiens, UniProt P11712). The description is as above. How it is done: as §1, §2, §3, §4, §5, §6, §7, §8, §9, §10, §11, §12, §13, §14, §15
Chain of CYP2C9 (P11712 whole entry): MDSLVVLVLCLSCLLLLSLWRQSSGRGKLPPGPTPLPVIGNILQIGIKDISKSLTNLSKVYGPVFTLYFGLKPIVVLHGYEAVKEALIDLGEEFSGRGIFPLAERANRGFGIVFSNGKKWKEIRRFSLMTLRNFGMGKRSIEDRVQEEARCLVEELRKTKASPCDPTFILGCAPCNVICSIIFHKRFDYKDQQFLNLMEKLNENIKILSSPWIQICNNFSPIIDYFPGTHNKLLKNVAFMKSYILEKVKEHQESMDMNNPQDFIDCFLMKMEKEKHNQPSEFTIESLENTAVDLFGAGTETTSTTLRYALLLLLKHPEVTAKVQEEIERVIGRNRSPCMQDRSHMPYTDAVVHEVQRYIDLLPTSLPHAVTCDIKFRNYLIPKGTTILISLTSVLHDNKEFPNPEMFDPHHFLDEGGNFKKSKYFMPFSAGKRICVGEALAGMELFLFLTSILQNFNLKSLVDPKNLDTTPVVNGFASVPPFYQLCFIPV
Data set [6] addresses CYP2D6 (Homo sapiens, UniProt P10635). The description is as above. On the procedure: as §1, §2, §3, §4, §5, §6, §7, §8, §9, §10, §11, §12, §13, §14, §15

What is called IC50 is the concentration that inhibits the measured activity by half.

Chain of CYP3A4 (P08684 2-503): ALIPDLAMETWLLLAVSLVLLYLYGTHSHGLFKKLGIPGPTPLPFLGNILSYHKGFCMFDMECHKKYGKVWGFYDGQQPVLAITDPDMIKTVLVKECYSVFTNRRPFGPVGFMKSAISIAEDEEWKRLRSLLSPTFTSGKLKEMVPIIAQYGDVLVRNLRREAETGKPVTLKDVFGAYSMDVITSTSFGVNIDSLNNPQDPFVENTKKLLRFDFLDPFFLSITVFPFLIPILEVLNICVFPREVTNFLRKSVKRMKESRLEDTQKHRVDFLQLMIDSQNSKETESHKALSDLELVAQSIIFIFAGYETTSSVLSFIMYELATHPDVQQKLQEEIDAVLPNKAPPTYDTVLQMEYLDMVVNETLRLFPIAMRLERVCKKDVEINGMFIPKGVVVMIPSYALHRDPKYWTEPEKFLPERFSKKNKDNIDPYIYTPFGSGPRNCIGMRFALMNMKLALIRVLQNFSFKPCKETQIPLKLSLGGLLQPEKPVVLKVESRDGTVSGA
T1 sequence (Q12809 whole entry): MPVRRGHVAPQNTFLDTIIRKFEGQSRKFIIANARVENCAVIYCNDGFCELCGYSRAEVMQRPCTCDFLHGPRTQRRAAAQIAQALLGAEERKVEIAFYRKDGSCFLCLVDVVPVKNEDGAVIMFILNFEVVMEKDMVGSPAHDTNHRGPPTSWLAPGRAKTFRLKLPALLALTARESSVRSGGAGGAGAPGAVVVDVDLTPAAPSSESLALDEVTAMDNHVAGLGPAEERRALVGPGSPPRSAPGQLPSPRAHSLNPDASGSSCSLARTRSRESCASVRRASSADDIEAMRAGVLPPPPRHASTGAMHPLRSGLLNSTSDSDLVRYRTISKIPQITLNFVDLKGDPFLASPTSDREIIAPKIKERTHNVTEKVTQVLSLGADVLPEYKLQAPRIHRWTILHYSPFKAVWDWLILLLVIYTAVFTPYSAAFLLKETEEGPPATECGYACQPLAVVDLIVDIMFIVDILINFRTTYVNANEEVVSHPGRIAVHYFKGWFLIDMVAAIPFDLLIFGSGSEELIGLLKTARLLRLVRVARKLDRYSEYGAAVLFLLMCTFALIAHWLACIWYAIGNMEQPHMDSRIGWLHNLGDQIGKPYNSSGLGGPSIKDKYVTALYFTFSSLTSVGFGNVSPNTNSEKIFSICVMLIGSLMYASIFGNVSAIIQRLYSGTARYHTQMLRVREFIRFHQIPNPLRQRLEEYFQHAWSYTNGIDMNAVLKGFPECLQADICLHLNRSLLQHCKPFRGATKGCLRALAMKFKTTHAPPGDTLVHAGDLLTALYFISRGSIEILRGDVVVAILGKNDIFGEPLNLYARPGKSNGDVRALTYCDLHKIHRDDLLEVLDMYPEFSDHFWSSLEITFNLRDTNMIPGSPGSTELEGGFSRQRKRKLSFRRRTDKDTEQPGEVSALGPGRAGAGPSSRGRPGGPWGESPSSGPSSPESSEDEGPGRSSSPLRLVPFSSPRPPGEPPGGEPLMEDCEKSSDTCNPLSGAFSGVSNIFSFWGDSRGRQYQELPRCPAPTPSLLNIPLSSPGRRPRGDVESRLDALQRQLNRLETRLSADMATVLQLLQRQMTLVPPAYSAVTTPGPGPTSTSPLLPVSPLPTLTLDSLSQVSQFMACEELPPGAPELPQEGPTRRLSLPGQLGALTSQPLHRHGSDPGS
Chain of CYP2D6 (P10635 whole entry): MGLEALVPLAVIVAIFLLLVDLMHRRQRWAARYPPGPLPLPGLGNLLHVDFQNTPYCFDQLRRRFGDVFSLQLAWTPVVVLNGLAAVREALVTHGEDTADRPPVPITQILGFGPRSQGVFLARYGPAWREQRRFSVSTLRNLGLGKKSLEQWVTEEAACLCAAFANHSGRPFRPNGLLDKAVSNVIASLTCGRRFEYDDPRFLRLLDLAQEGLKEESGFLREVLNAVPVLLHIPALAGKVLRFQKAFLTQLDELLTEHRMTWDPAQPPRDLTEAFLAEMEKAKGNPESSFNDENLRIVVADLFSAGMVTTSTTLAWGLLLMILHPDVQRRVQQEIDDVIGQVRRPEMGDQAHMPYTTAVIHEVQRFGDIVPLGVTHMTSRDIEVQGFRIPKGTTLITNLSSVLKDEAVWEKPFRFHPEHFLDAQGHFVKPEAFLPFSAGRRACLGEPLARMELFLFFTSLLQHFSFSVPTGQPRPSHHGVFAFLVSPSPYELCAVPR
Chain of CYP2C19 (P33261 whole entry): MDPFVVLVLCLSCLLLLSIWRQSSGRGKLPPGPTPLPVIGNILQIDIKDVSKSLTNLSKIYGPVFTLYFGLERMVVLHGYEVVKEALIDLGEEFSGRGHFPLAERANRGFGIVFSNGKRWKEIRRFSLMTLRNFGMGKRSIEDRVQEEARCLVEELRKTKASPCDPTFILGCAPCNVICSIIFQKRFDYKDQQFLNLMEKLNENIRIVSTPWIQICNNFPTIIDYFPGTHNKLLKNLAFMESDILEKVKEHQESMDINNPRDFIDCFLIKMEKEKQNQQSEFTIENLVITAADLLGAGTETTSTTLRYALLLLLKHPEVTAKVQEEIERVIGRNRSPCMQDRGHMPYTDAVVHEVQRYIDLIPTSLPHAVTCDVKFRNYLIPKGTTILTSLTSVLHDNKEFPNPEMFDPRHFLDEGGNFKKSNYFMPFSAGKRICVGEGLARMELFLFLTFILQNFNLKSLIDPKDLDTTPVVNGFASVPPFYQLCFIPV

`Cc1c(NC(=O)CC(C)(C)C)n(C)c2cc(Nc3ccc(F)cc3)ccc12` [Compound 1]: the IC50 in data set [1] (CHO-hERG cells, Qpatch, highest test concentration 40.00 µM, read-out: IC50) is greater than 40 µM.
For the molecule `Cc1c(NC(=O)CC(C)(C)C)n(C)c2cc(Nc3ccc(C(F)(F)F)cc3)ccc12` [Compound 5], the IC50 in data set [2] is greater than 50 µM; in data set [1], greater than 40 µM.
As to `Cc1nc(Nc2ccc3c(C)c(NC(=O)CC(C)(C)C)n(C)c3c2)ccc1F` [Compound 41], the IC50 is 11 µM in data set [3]; greater than 50 µM in data set [4]; 11 µM in data set [5]; greater than 50 µM in data set [6]; greater than 50 µM in data set [2].
